Values of other authors in patent US20260183398A1, “RADIOLUMINESCENT NANOPARTICLES FOR RADIATION-TRIGGERED CONTROLLED RELEASE DRUGS” (Purdue Research Foundation, priority 2017, published 2026).

What was measured:
[1] = reported
[2] = PTX intratumorally delivered to mouse xenografts in the polymer encapsulated form
[3] = systemic chemotherapy, about 200 mg/m2

in vitro IC90 [1]: ≈ 0.09 μg PTX per mg tumor | tumor elimination rate constant ket [2]: 0,005 h^−1
Compound: CC(=O)O[C@H]1C(=O)[C@@]2(C)[C@H]([C@H](OC(=O)c3ccccc3)[C@]3(O)C[C@H](OC(=O)[C@H](O)[C@@H](NC(=O)c4ccccc4)c4ccccc4)C(C)=C1C3(C)C)[C@]1(OC(C)=O)CO[C@@H]1C[C@@H]2O [PTX, paclitaxel]
in vitro IC90 (PTX concentration giving rise to 90% cell kill in vitro) [1]: about 90 μg/mL | patients with dermatological side effects (skin, hair, nail) [3]: 86.8%
